The results in this text go back to patent US20070037785A1, “Novel dipeptidyl peptidase IV inhibitors used for functionally influencing different cells and treating immunological, infammatory, neuronal, and other diseases” (priority 2003, published 2007).

Experiment [1] has as its system Dextran Sulfate-induced Colitis of Mice. Briefly: Dextran sulfate-induced colitis of mice, disease score. Particulars: 10 pg single inhibitor i.p. on three successive days from day 5; day 7; slight, but insignificant. In kind it is in vivo, Balb/c mice.
For experiment [2], the system named is Ovalbumine-induced Asthma Bronchiale of Mice. Briefly: Ovalbumine-induced asthma bronchiale of mice, pulmonal function (EF50). Particulars: 0.1 mg (of each) inhibitor i.p. on days 28-35; FIG. 3A. The format is in vivo, Balb/c Mice. An excerpt:
Therapeutic Effect of the Combined Inhibition of Dipeptidyl Peptidase IV and of Enzymes Having an Analogous Effect as well as of the Alanyl Aminopeptidase and of Enzymes Having an Analogous Effect on the Ovalbumine-induced Asthma Bronchiale of Mice (Animal Model of Human Asthma Bronchiale).
Female Balb/c Mice were sensitized for the antigen ovalbumine capable of inducing asthma bronchiale by an intreperitoneal administration of […] ovalbumine on the days 0, 14 and 21. On day 27/28, the animals received a boostering dose of ovalbumine by inhalation [vD3]. After an intreperitoneal administration of the peptidase inhibitors on the days 28-35, there was effected an intranasal ovalbumine challenge on day 35, as well as a check of the allergic premature reaction via the pulmonal function. There were measured: the average expiratory flux (EF50), the tidal volume, the respiration rate and the minute volume as well as the number of eosinophilic granulocytes in the bronchoalveolar lavage. 8 to 10 animals were used per experimental group. By way of example, in FIG. 3A, there is summarized the effect of the peptidase inhibitors on the reduction of the EF50 value. […] Group E represents animals which were not sensitized by OVA, but which were subjected—beyond that—all procedures to which the animal groups A to D were subjected.

SMILES strings stand for the structures.

`CCCCC[C@H](CC(=O)NO)C(=O)N[C@H](C(=O)N1CCC[C@H]1CO)C(C)C` [Actinonine]: in experiment [1], the “reduction of the heaviness of the disease (score)” value is recorded as −16.5%. For the same compound, the “therapeutic effect on the reduction of the EF50 value” in experiment [2] is recorded as “showed a therapeutic effect”.

Turning to `N[C@@H](CCCCNC(=O)OCc1ccc([N+](=O)[O-])cc1)C(=O)N1CCCC1` [Lys[Z(NO2)] pyrrolidide], the “therapeutic effect on the reduction of the EF50 value” in experiment [2] is recorded as “showed a therapeutic effect”.
